Data taken from patent publication US20260008862A1, “Bispecific Anti-BCMA x Anti-CD3 Antibodies and Uses Thereof” (Regeneron Pharmaceuticals, Inc., priority 2018, published 2026).

How the values were obtained:
[1] = tested on: Jurkat/NFATLuc.3C7 cells + MM1-S cells; assay: Jurkat/NFATLuc reporter bioassay with MM1-S cells; format: cell-based; details: highest RLU / lowest RLU
Protocol: Activity of the anti-BCMA×anti-CD3 bispecific antibodies were assessed in a Jurkat/NFATLuc reporter bioassay utilizing several cell lines with varying levels of BCMA surface expression. The Jurkat cells were engineered to express an NFAT-luciferase reporter (Jurkat/NFATLuc.3C7), and 50,000 Jurkat reporter cells were combined with 50,000 BCMA positive (Daudi, MM1-S, NCI-H929, OPM-2, RPMI-8226, MOLP-8, or Raji) or BCMA negative (HEK293) cells in Thermo Nunclon delta 96 well white microwell plates (Thermo Scientific, Cat #136102) in 50 ul of assay media (RPMI media with 10% FBS and 1% P/S/G). Three-fold serial dilutions of the BCMA×CD3 bispecific antibodies (mAb25441 D or mAb25442D), or a bivalent anti-BCMA antibody (mAb21581) were immediately added in 50 μL of assay buffer. The plates were gently agitated and incubated in a 37° C., 5% CO2 incubator for 4-6 hours. NFAT-Luciferase activity was determined using Promega One-Glo (Cat #E6130) and a Perkin Elmer Envision plate reader. RLU were plotted in GraphPad Prism using a four-parameter logistic equation over a 12-point response curve to calculate EC50 values. […] The signal to noise (S:N) is determined by taking the ratio of the highest RLU on the curve to the lowest.

[2] = tested on: BCMA-expressing NCI-H929 tumors; assay: NCI-H929 + PBMC xenogenic tumor model, immediate treatment, dose response (Example 11); format: in vivo, mouse
Protocol: (§1) To determine the in vivo efficacy of anti-BCMA×anti-CD3 bispecific antibodies (Abs), a xenogenic tumor study was performed. Immunodeficient NOD.Cg-Prkdc^scidIl2rg^tm1Wji/SzJ (NSG) mice were subcutaneously implanted with a mixture of 10×10^6 BCMA-expressing NCI-H929 human multiple myeloma tumor cells and 0.5×10^6 human peripheral blood mononuclear cells (PBMC) isolated from a normal, healthy donor. […] The mice were administered these Abs twice per week for a total of seven doses, and tumor growth was assessed over 60 days. While BCMA^+ NCI-H929 tumors grew similarly in the vehicle- and CD3-binding control-treated mice, both anti-BCMA×anti-CD3 Abs that were tested prevented the growth of tumors in a dose-dependent manner in vivo.
Implantation and measurement of xenogenic tumors: NSG mice were subcutaneously implanted with a mixture of 10×10^6 BCMA-expressing NCI-H929 multiple myeloma cells and 0.5×10^6 PBMC derived from a normal, healthy donor. […] The mice were administered Abs twice per week for a total of seven doses. Tumor growth was measured with calipers twice per week for the duration of the experiment.
Calculation of xenogenic tumor growth and inhibition: In order to determine tumor volume by external caliper, the greatest longitudinal diameter (length in mm) and the greatest transverse diameter (width in mm) were determined. Tumor volumes based on caliper measurements were calculated by the formula: Volume (mm^3)=(length×width^2)/2.

[3] = tested on: established BCMA-expressing NCI-H929 tumors; assay: Established NCI-H929 + PBMC xenogenic tumor model, treatment from day 5 (Example 12); format: in vivo, mouse; details: for Average Tumor Size (mm3) ± SEM on Day 5: Day 5 (day of first dose)
Protocol: as §1, with “donor. The tumors were allowed to grow and establish for 5 days until they were approximately 70 mm^3 in size.” for “donor.”, “over 55” for “over 60”, “both BCMA×CD3” for “both anti-BCMA×anti-CD3”, “tested shrank established tumors and” for “tested”
Implantation and measurement of xenogenic tumors: NSG mice were subcutaneously implanted with a mixture of 10×10^6 BCMA-expressing NCI-H929 multiple myeloma cells and 0.5×10^6 PBMC derived from a normal, healthy donor. The tumors were allowed to grow and establish for 5 days until they were approximately 70 mm^3 in size. […] The mice were administered Abs twice per week for a total of seven doses. Tumor growth was measured with calipers twice per week for the duration of the experiment.
Calculation of xenogenic tumor growth and inhibition: In order to determine tumor volume by external caliper, the greatest longitudinal diameter (length in mm) and the greatest transverse diameter (width in mm) were determined. Tumor volumes based on caliper measurements were calculated by the formula: Volume (mm^3) […] (length×width^2)/2.

## REGN5458: anti-BCMA×anti-CD3 bispecific antibody: BCMA HCVR of mAb21581 (SEQ 66), CD3 HCVR of mAb7221G (SEQ 90), common LCVR SEQ 82
[1]
  S:N: 165
[2]; 0.04 mg/kg
  Average Tumor Size (mm3) ± SEM on Day 7: 30.8 ± 5.5 mm3
  Average Tumor Size (mm3) ± SEM on Day 12: 71.5 ± 22.4 mm3
  Average Tumor Size (mm3) ± SEM on Day 15: 133.4 ± 50.9 mm3
  Average Tumor Size (mm3) ± SEM on Day 19: 413.7 ± 162.7 mm3
  Average Tumor Size (mm3) ± SEM on Day 22: 669.4 ± 248.5 mm3
  Average Tumor Size (mm3) ± SEM on Day 26: 1167.0 ± 431.7 mm3
  Average Tumor Size (mm3) ± SEM on Day 29: 1781.8 ± 620.7 mm3
[2]; 0.4 mg/kg
  Average Tumor Size (mm3) ± SEM on Day 4: 31.9 ± 2.0 mm3
  Average Tumor Size (mm3) ± SEM on Day 7: 11.3 ± 3.0 mm3
  Average Tumor Size (mm3) ± SEM on Day 15: 0 ± 0 mm3
  Average Tumor Size (mm3) ± SEM on Day 19: 0 ± 0 mm3
  Average Tumor Size (mm3) ± SEM on Day 22: 0 ± 0 mm3
  Average Tumor Size (mm3) ± SEM on Day 26: 0 ± 0 mm3
  Average Tumor Size (mm3) ± SEM on Day 29: 0 ± 0 mm3
  Average Tumor Size (mm3) ± SEM on Day 34: 0 ± 0 mm3
  Average Tumor Size (mm3) ± SEM on Day 39: 0 ± 0 mm3
  Average Tumor Size (mm3) ± SEM on Day 42: 0 ± 0 mm3
  Average Tumor Size (mm3) ± SEM on Day 46: 0 ± 0 mm3
  Average Tumor Size (mm3) ± SEM on Day 55: 0 ± 0 mm3
  Average Tumor Size (mm3) ± SEM on Day 60: 0 ± 0 mm3
[2]; 4 mg/kg
  Average Tumor Size (mm3) ± SEM on Day 4: 18.0 ± 1.2 mm3
  Average Tumor Size (mm3) ± SEM on Day 12: 0 ± 0 mm3
  Average Tumor Size (mm3) ± SEM on Day 15: 0 ± 0 mm3
  Average Tumor Size (mm3) ± SEM on Day 19: 0 ± 0 mm3
  Average Tumor Size (mm3) ± SEM on Day 22: 0 ± 0 mm3
  Average Tumor Size (mm3) ± SEM on Day 26: 0 ± 0 mm3
  Average Tumor Size (mm3) ± SEM on Day 29: 0 ± 0 mm3
  Average Tumor Size (mm3) ± SEM on Day 34: 0 ± 0 mm3
  Average Tumor Size (mm3) ± SEM on Day 39: 0 ± 0 mm3
  Average Tumor Size (mm3) ± SEM on Day 42: 0 ± 0 mm3
  Average Tumor Size (mm3) ± SEM on Day 46: 0 ± 0 mm3
  Average Tumor Size (mm3) ± SEM on Day 55: 0 ± 0 mm3
  Average Tumor Size (mm3) ± SEM on Day 60: 0 ± 0 mm3
[3]; 0.04 mg/kg
  Average Tumor Size (mm3) ± SEM on Day 5: 58.1 ± 5.6 mm3
  Average Tumor Size (mm3) ± SEM on Day 8: 130.3 ± 16.7 mm3
  Average Tumor Size (mm3) ± SEM on Day 12: 525.9 ± 71.5 mm3
  Average Tumor Size (mm3) ± SEM on Day 15: 1031.2 ± 164.3 mm3
  Average Tumor Size (mm3) ± SEM on Day 19: 2467.5 ± 370.0 mm3
  Average Tumor Size (mm3) ± SEM on Day 22: 3745.7 ± 541.2 mm3
  Average Tumor Size (mm3) ± SEM on Day 27: 1589.1 ± 0 mm3
  Average Tumor Size (mm3) ± SEM on Day 30: 2886.5 ± 0 mm3
[3]; 0.4 mg/kg
  Average Tumor Size (mm3) ± SEM on Day 5: 69.3 ± 7.3 mm3
  Average Tumor Size (mm3) ± SEM on Day 8: 120.3 ± 16.3 mm3
  Average Tumor Size (mm3) ± SEM on Day 12: 262.7 ± 61.6 mm3
  Average Tumor Size (mm3) ± SEM on Day 15: 476.2 ± 133.5 mm3
  Average Tumor Size (mm3) ± SEM on Day 19: 1347.5 ± 334.7 mm3
  Average Tumor Size (mm3) ± SEM on Day 22: 2068.5 ± 465.0 mm3
  Average Tumor Size (mm3) ± SEM on Day 27: 3463.9 ± 1025.0 mm3
  Average Tumor Size (mm3) ± SEM on Day 30: 2144.2 ± 2144.2 mm3
  Average Tumor Size (mm3) ± SEM on Day 35: 0 ± 0 mm3
  Average Tumor Size (mm3) ± SEM on Day 40: 0 ± 0 mm3
  Average Tumor Size (mm3) ± SEM on Day 55: 0 ± 0 mm3
[3]; 4 mg/kg
  Average Tumor Size (mm3) ± SEM on Day 5: 71.9 ± 10.3 mm3
  Average Tumor Size (mm3) ± SEM on Day 8: 64.7 ± 16.4 mm3
  Average Tumor Size (mm3) ± SEM on Day 12: 19.5 ± 10.9 mm3
  Average Tumor Size (mm3) ± SEM on Day 15: 25.6 ± 19.2 mm3
  Average Tumor Size (mm3) ± SEM on Day 19: 40.6 ± 32.8 mm3
  Average Tumor Size (mm3) ± SEM on Day 22: 78.3 ± 60.8 mm3
  Average Tumor Size (mm3) ± SEM on Day 27: 252.3 ± 185.1 mm3
  Average Tumor Size (mm3) ± SEM on Day 30: 411.3 ± 307.2 mm3
  Average Tumor Size (mm3) ± SEM on Day 35: 633.5 ± 473.5 mm3
  Average Tumor Size (mm3) ± SEM on Day 40: 369.5 ± 369.5 mm3
  Average Tumor Size (mm3) ± SEM on Day 55: 0 ± 0 mm3
